Experimental data published in US20080025917A1, “Methods for modulating formation and progression of cellulite” (priority 2006, published 2008).

What was measured:
[1] = test system: human primary dermal fibroblasts; assay: Attachment and spreading of primary dermal fibroblasts on a Type I collagen matrix; type: cell-based
Procedure: Assay of HF effects on contractile behavior of dermal fibroblasts. Previous studies have established that HF can modulate fibrosis in vivo, and regulate ECM production by cells in vitro. The studies described herein provide a simple assay to test the effects of HF and its putative mediators on the behavior of cells likely to provide the basis for the structural features of cellulite—dermal fibroblasts and myofibroblasts. When human primary dermal fibroblasts are cultured in a matrix of Type I collagen, mimicking the interstitial matrix of the dermis and hypodermis, they attach to the substratum and spread, exerting contractile force on the surrounding interstitial matrix (FIG. 2A).

[2] = target: T1, TIF1β (Mus musculus, UniProt Q62318); assay: HF-affinity resin binding / free-compound competition for TIF1β
T1 construct: endogenous in cells; host or cells: SV-MES cells (lysate)
T1 sequence (Q62318 whole entry): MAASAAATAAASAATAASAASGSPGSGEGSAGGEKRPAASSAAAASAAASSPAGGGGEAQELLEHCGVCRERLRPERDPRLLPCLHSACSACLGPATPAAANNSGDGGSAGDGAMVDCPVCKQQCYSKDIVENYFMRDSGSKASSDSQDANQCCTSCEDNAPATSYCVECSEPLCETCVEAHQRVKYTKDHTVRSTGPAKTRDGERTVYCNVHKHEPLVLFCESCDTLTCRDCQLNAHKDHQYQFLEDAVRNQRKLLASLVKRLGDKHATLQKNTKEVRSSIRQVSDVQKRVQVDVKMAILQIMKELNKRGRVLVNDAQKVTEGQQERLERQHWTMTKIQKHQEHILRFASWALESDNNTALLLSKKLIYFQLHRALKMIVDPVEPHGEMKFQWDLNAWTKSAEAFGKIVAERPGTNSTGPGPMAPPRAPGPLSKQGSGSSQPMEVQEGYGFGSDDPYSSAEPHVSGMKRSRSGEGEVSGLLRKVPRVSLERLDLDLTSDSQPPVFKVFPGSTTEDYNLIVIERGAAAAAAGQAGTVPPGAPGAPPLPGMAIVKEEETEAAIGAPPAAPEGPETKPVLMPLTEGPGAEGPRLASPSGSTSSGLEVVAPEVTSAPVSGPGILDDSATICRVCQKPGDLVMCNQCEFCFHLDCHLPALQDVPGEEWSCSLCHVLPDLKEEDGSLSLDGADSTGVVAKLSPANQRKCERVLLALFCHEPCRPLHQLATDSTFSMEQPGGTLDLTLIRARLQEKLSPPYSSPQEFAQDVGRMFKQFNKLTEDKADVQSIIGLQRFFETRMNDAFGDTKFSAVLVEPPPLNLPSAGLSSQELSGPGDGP
Description: The molecular mechanisms underlying the regulation of ECM by HF currently are not known. […] These proteins, TIF1β and Ruvbl2, are both transcriptional regulatory proteins. TIF1β is known to interact with transcription factors that regulate Type I collagen expression, providing the first molecular connection between HF and the regulation of an ECM gene. A brief description and data detailing the isolation and identification of HF binding proteins are provided below. […] This band was identified by tandem mass spectrometry as TIF1β. These HF binding proteins were isolated and identified by tandem mass spectrometry. Using this approach, the transcriptional co-repressor TIF1β (FIG. 4) was initially identified as an HF binding protein. A cDNA encoding TIF1β was also identified and used to confirm that TIF1β binds specifically to HF (FIG. 5). Cloned, tagged TIF1β was transfected into SV-MES cells and precipitated with HF-resin.

[3] = target: T2, RuvBl2 (Mus musculus, UniProt Q9WTM5); assay: HF affinity purification / tandem mass spectrometry, RuvBl2; type: binding
T2 construct: endogenous in cells; host or cells: SV-MES cell lysate (inferred from the same approach described)
T2 sequence (Q9WTM5 2-463 limits assumed): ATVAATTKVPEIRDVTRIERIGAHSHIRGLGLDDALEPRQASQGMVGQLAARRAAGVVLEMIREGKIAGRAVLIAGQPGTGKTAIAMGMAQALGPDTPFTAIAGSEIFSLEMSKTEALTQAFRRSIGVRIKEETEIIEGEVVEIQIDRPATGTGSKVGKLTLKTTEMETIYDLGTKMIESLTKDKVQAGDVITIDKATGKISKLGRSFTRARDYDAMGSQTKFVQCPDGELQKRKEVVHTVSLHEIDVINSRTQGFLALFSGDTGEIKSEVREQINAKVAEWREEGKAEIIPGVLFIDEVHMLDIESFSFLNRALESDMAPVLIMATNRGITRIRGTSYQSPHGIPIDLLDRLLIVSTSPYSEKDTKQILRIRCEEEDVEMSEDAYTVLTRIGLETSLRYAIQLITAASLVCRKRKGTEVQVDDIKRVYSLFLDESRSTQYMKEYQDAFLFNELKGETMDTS
Description: TIF1β is a member of a family of transcriptional co-repressors (Chang, et al., Mol Cell Biol, vol. 18: 5880-87 (1998); Hsu, et al. Embo J., vol. 20: 2273-85 (2001); Le Douarin, et al. J Steroid Biochem Mol Biol 65, 43-50 (1998)). TIF1β interacts with a variety of transcription factors, including nuclear receptors, to mediate regulation of chromatin modification (Chang, et al., Mol Cell Biol, vol. 18: 5880-87 (1998); Hsu, et al. Embo J., vol. 20: 2273-85 (2001); Nomura, et al. J Biol Chem 279, 16715-26 (2004)). TIF1β interacts with a number of transcription factors known to regulate the synthesis of Type I collagen, providing a direct link between HF, TIF1β and the transcription of extracellular matrix genes. […] Ruvbl2, also known as Reptin, ECP51, Tip48, and Tip49b, is, like TIF1β, known to function in transcriptional regulation and chromatin re-modeling (Kanemaki, et al. J Biol Chem 274, 22437-44 (1999)). The identification of halofuginone's intracellular effectors, and the binding sites for halofuginone in those effectors, provides additional approaches to targeting the deposition of sub-dermal ECM. New classes of small molecules can be designed to target intracellular effectors such as TIF1β and RuvBl2, broadening the range of potential therapeutic agents for the treatment of cellulite.

[4] = test system: NMuMg murine epithelial cells; assay: TGFβ-induced myofibroblast formation, Western blot for smooth muscle actin; type: cell-based; details: 5 ng/ml TGFβ1, 72 hours, increasing doses
Procedure: NMuMg murine epithelial cells were induced to undergo transition to myofibroblasts by stimulation with 5 ng/ml TGFβ1. After 72 hours, myofibroblast differentiation was assessed by Western blot for Smooth muscle actin (SMA), a myofibroblast contractile protein. […] Thus, HF inhibited myofibroblasts formation in response to TGFβ.

[5] = test system: Primary human dermal fibroblasts; type: cell-based; details: 100 nM, 5 ng/ml TGFβ1
Procedure: Primary human dermal fibroblasts were seeded in a matrix of Type I collagen with 5 ng/ml TGFβ1 in the presence or absence of 100 nM HF. FIG. 7 depicts the effect of the presence and absence of HF on the behavior of TGFβ-treated dermal fibroblasts.

[6] = test system: human primary dermal fibroblasts; assay: Fibroblast-driven collagen disc contraction; type: cell-based; details: 100 nM, 72 hours
Procedure: Human primary dermal fibroblasts were seeded in a matrix of Type I collagen in the presence or absence of 5 ng/ml TGFβ or 100 nM HF. Collagen discs were released from attachment to the culture dish and allowed to undergo fibroblast-driven contraction for 72 hours. The area of the discs at time zero was 200 units.

[7] = in vitro; cited from earlier work
[8] = cited from earlier work

SMILES	ability of fibroblasts to attach and spread on collagen matrix ([1]; 200 nM, 24 hrs)	ability of fibroblasts to attach and spread on collagen matrix ([1]; as little as 30 nM)	competition by free compound for binding of TIF1β band to HF affinity resin ([2]; SV-MES cell lysates, excess free compound)	blocking of tagged TIF1β interaction with immobilized HF by pre-incubation ([2]; cloned, tagged TIF1β transfected into SV-MES cells, precipitated with HF-resin)	binding of RuvBl2 to HF [3]	smooth muscle actin (SMA) induction [4]	fibroblast extensions and attachments to the matrix [5]	contractile activity of myofibroblasts in a collagen matrix (disc area) [6]	concentration at which it acts as an inhibitor of fibrosis [7] [nM]	excess dermal ECM deposition ([8]; animal models of wound healing and fibrotic disease, intra-peritoneally, in food or applied locally)	toxicity in vivo ([8]; in vivo)
O=C(CC1NCCCC1O)Cn1cnc2cc(Br)c(Cl)cc2c1=O (stereo not drawn) [HF, 7-bromo-6-chloro-3-[3-(3-hydroxy-2-piperidinyl)-2-oxopropyl]-4(3H)-quinazolinone]	completely fail to attach and spread	Identical results	specifically competed	blocked TIF1β interaction with immobilized HF	second HF binding protein	eliminated SMA induction	no extensions or attachments to the matrix or to one another	inhibited the contractile activity	20 to 200	reduces excess dermal ECM deposition	low-toxicity
CC(C)(C)OC(=O)N1CCC[C@H](O)[C@H]1CC(=O)Cn1cnc2cc(Br)c(Cl)cc2c1=O [MAZ1310]	inactive	–	–	–	–	–	–	–	–	–	–
